These results are taken from article PMC8072286, “Gcn5-Related N-Acetyltransferases (GNATs) With a Catalytic Serine Residue Can Play Ping-Pong Too” (Frontiers in Molecular Biosciences, 2021).

The test addresses T1, PA3944 (Pseudomonas aeruginosa, UniProt Q9HX72).
T1 construct: heterologous expression; N-terminal polyhistidine tag kept for kinetics, removed for crystallization; monomer in solution
In words: X-ray crystal structure ([…] Å). The test is classed as binding. The following applies: co-crystallized with 5 mM AcCoA, donor site.

SMILES strings stand for the structures.

T1 sequence (Q9HX72 whole entry): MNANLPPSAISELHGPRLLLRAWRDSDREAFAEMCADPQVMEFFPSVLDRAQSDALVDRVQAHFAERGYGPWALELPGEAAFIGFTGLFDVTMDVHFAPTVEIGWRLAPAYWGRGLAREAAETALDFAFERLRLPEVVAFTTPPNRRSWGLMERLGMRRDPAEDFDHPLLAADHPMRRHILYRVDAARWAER

Take `CC(C)(COP(=O)(O)OP(=O)(O)OC[C@H]1O[C@@H](n2cnc3c(N)ncnc32)[C@H](O)[C@@H]1OP(=O)(O)O)[C@@H](O)C(=O)NCCC(=O)NCCS` [CoA]: for the setting “CoA modeled in chain A”, the “X-ray crystal structure (1.80 Å)” value was “we modeled CoA in chain A and AcCoA in chain B”.
Take `CC(=O)SCCNC(=O)CCNC(=O)[C@H](O)C(C)(C)COP(=O)(O)OP(=O)(O)OC[C@H]1O[C@@H](n2cnc3c(N)ncnc32)[C@H](O)[C@@H]1OP(=O)(O)O` [AcCoA]: the “X-ray crystal structure (1.80 Å)” value (AcCoA modeled in chain B) is “we modeled CoA in chain A and AcCoA in chain B”.
